Reference: ChEMBL document CHEMBL5050844 (2019)

What was measured:
[1] = Induction of anti-CD3 antibodies-stimulated human exhausted T cell activation assessed fold increase in IFN-gamma secretion measured by ELISA assay; type: functional, T cell line
[2] = Induction of activation of human CD56+ CD3- NK cells co-cultured with human K562 cells in 1:1 ratio and assessed as increase in TNF-alpha secretion at 10 uM measured by ELISA assay; type: functional, Natural killer cell
[3] = Induction of anti-CD3/CD28 antibodies-stimulated human CD4+ T cell activation at 10 uM assessed fold increase in CD69 expression measured by flow cytometry analysis; type: functional, T cell line
[4] = Induction of anti-CD3 antibodies-stimulated human CD8+ T cell activation in immunocompetent mouse assessed fold increase in CD25 expression at 90 mg/kg, ip administered thrice a day; type: functional
[5] = Induction of activation of human CD56+ CD3- NK cells co-cultured with human K562 cells in 5:1 ratio and assessed as increase in TNF-alpha secretion at 1 uM measured by ELISA assay; type: functional, Natural killer cell
[6] = Induction of activation of human CD56+ CD3- NK cells co-cultured with human K562 cells in 1:1 ratio and assessed as increase in MIP1beta secretion at 10 uM measured by ELISA assay; type: functional, Natural killer cell
[7] = Induction of anti-CD3 antibodies-stimulated human CD4+ T cell activation in immunocompetent mouse assessed fold increase in CD25 expression at 90 mg/kg, ip administered twice a day; type: functional
[8] = Induction of anti-CD3/CD28 antibodies-stimulated human CD4+ T cell activation at 1.11 uM assessed fold increase in CD69 expression measured by flow cytometry analysis; type: functional, T cell line
[9] = Induction of allogenic human T cell activation at 3 uM assessed fold increase in cell proliferation; type: functional, T cell line
[10] = Induction of activation of human CD56+ CD3- NK cells co-cultured with human K562 cells in 5:1 ratio and assessed as increase in MIP1beta secretion at 1 uM measured by ELISA assay; type: functional, Natural killer cell
[11] = Induction of activation of human CD56+ CD3- NK cells co-cultured with human K562 cells in 1:1 ratio and assessed as increase in IFN-gamma secretion at 1 uM measured by ELISA assay; type: functional, Natural killer cell
[12] = Induction of anti-CD3/CD28 antibodies-stimulated human anergic T cell activation at 10 uM assessed fold increase in IFN-gamma secretion measured by ELISA assay; type: functional, T cell line
[13] = Induction of anti-CD3 antibodies-stimulated human T cell activation at 8 uM assessed fold increase in CD25 expression measured by ELISA assay; type: functional, T cell line
[14] = Induction of allogenic human T cell activation at 10 uM assessed fold increase in cell proliferation; type: functional, T cell line
[15] = Induction of anti-CD3/CD28 antibodies-stimulated human T cell activation at 1 uM assessed fold increase in CD25 expression measured by ELISA assay; type: functional, T cell line
[16] = Induction of activation of human CD56+ CD3- NK cells co-cultured with human K562 cells in 5:1 ratio and assessed as increase in IFN-gamma secretion at 1 uM measured by ELISA assay; type: functional, Natural killer cell
[17] = Induction of activation of human CD56+ CD3- NK cells co-cultured with human K562 cells in 1:1 ratio and assessed as increase in TNF-alpha secretion at 1 uM measured by ELISA assay; type: functional, Natural killer cell
[18] = Induction of activation of human CD56+ CD3- NK cells co-cultured with human K562 cells in 1:1 ratio and assessed as increase in MIP1beta secretion at 1 uM measured by ELISA assay; type: functional, Natural killer cell
[19] = Induction of anti-CD3/CD28 antibodies-stimulated human T cell activation at 0.3 uM assessed fold increase in IL-2 secretion measured by ELISA assay; type: functional, T cell line
[20] = Induction of activation of human CD56+ CD3- NK cells co-cultured with human K562 cells in 5:1 ratio and assessed as increase in IFN-gamma secretion at 10 uM measured by ELISA assay; type: functional, Natural killer cell
[21] = Induction of activation of human CD56+ CD3- NK cells co-cultured with human K562 cells in 5:1 ratio and assessed as increase in TNF-alpha secretion at 10 uM measured by ELISA assay; type: functional, Natural killer cell
[22] = Induction of activation of human CD56+ CD3- NK cells co-cultured with human K562 cells in 5:1 ratio and assessed as increase in MIP1beta secretion at 10 uM measured by ELISA assay; type: functional, Natural killer cell
[23] = Induction of anti-CD3 antibodies-stimulated human T cell activation at 10 uM assessed fold increase in TNF-alpha secretion measured by ELISA assay; type: functional, T cell line
[24] = Induction of anti-CD3 antibodies-stimulated human T cell activation at 1.11 uM assessed fold increase in IFN-gamma secretion measured by ELISA assay; type: functional, T cell line
[25] = Induction of anti-CD3/CD28 antibodies-stimulated human T cell activation at 10 uM assessed fold increase in GM-CSF secretion measured by ELISA assay; type: functional, T cell line
[26] = Induction of anti-CD3/CD28 antibodies-stimulated human T cell activation at 10 uM assessed fold increase in IFN-gamma secretion measured by ELISA assay; type: functional, T cell line
[27] = Induction of anti-CD3 antibodies-stimulated human T cell activation at 1.11 uM assessed fold increase in TNF-alpha secretion measured by ELISA assay; type: functional, T cell line

Row | Structure (SMILES) | fold change (FC) [1] | fold change (FC) [2] | fold change (FC) [3] | fold change (FC) [4] | fold change (FC) [5] | fold change (FC) [6] | fold change (FC) [7] | fold change (FC) [8] | fold change (FC) [9] | fold change (FC) [10] | fold change (FC) [11] | fold change (FC) [12] | fold change (FC) [13] | fold change (FC) [14] | fold change (FC) [15] | fold change (FC) [16] | fold change (FC) [17] | fold change (FC) [18] | fold change (FC) [19] | fold change (FC) [20] | further results
1 | C[C@@H](Sc1nncn1C)c1cccc(NC(=O)c2cccc(C(F)(F)F)n2)c1 | <=1.4 | 1.01 | 1.401 | 1 | <=1 | 1.01 | 1.51 | 1.201 | <=2 | <=1 | <=1 | <=2.5 | 0.601 | <=2 | 1.01 | <=1 | 1.01 | 1.01 | 1.01 | 1.01 | fold change (FC) [21]: <=1; fold change (FC) [22]: 1.01
2 | C[C@H](Sc1nncn1C)c1cccc(NC(=O)c2cccc(C(F)(F)F)n2)c1 | <=1.4 | 1.01 | <=1.2 | 1.51 | 1.01 | 1.01 | 1 | <=1.2 | <=2 | <=1 | 1.01 | 2.51 | >=1.001 | <=2 | 1.31 | 1.01 | 1.01 | 1.01 | 1.01 | 2.01 | fold change (FC) [23]: 1.51; fold change (FC) [24]: <=2; fold change (FC) [25]: 2.01; fold change (FC) [26]: <=2; fold change (FC) [21]: 2.01; fold change (FC) [22]: 1.01; fold change (FC) [27]: 1.51
